Here are results for twelve molecules from PubChem BioAssay (NCI).

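Five compound concentrations were applied to cells in 96-well plates for 48 hours; endpoints were derived by simple linear interpolation of the resulting dose-response curve. Definition used: TGI = concentration required for complete inhibition of growth.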 Bounds are passed on as bounds.

Holding throughout (experiment): NCI anticancer screen, dose series, 48 h
In assay [1] the test system is A498 renal.
Assay [2] has as its system HS 578T breast.
The test system of assay [3] is SR leukemia.
Assay [4] has as its system COLO 205 colon.
For assay [5], the system named is HCT-15 colon.
Assay [6] has as its system MOLT-4 leukemia.
The test system of assay [7] is HL-60(TB) leukemia.
Assay [8] deals with MDA-MB-435.
In assay [9] the test system is HOP-62 NSCLC.
The subject of assay [10] is SF-295 CNS.
Assay [11] relates to UACC-62 melanoma.
For assay [12], the system named is CCRF-CEM leukemia.

As to `COC(=O)/C(C#N)=C(/NCc1ccccc1)Nc1ccccc1`, the TGI in assay [1], in assay [2], in assay [3], in [4], in assay [5] and in assay [6] was over 100 µM throughout. The TGI in [7], in assay [8], in assay [9] and in [10] was over 100 µM throughout.

In the case of `Cc1cc(C)nc(NS(=O)(=O)c2ccc(Nc3nnc(/C=C/c4c(O)ccc5ccccc45)c(=O)n3N)cc2)n1`, the TGI was over 100 µM in [2]; 55.6 µM in [3]; 60.1 µM in [11]; 30.9 µM in [5]; over 100 µM in assay [6]; over 100 µM in assay [12]. Also, the TGI in assay [7] is 66.8 µM; in assay [8], 57.6 µM; in assay [9] it was over 100 µM; in [10] it was over 100 µM.

With `CC(C)(C)CN1[C@@H]2CCCC[C@H]2N(CC(C)(C)C)P1(=O)C(O)/C=C/c1ccccc1` (some centres not stated), the TGI in [1] is 89.8 µM; in assay [2], 73.2 µM; in [4] it was 34.2 µM; in [11], over 100 µM; in assay [5], over 100 µM; in [6], over 100 µM. Besides, the TGI in assay [12] is over 100 µM; in [7], 81.1 µM; in assay [8], over 100 µM; in assay [9], over 100 µM; in assay [10], over 100 µM.

For the molecule `COc1cccc(N2C(=O)C3c4[nH]c5ccc(C)cc5c4C4CCC(C)CC4C3C2=O)c1` (configuration not stated), the TGI in assay [1] was over 100 µM; in assay [2], 64.9 µM; in assay [4], over 100 µM; in [11], over 100 µM; in assay [5], over 100 µM; in [12] it was over 100 µM. The TGI in assay [7] is 25.3 µM; in assay [8], over 100 µM; in assay [9] it was 42.6 µM; in assay [10] it was over 100 µM.

Turning to `COC(=O)C1Cc2c([nH]c3ccccc23)-c2[nH]c3ccccc3c2CC(NC(C)=O)C(=O)NCC(=O)NCC(=O)N1` (configuration not stated), the TGI in assay [1], in [2], in assay [4], in assay [11], in assay [5] and in [6] was over 100 µM throughout. Besides, the TGI in assay [12], in assay [7], in [8], in [9] and in assay [10] was over 100 µM throughout.

For the molecule `COc1ccc2oc(=O)c(-c3csc(-c4ccccc4)n3)cc2c1`, the TGI in assay [2] was 94.5 µM; in assay [3], over 100 µM; in [4] it was over 100 µM; in assay [11], over 100 µM; in [5], over 100 µM; in assay [6], over 100 µM. The TGI was over 100 µM in assay [12]; over 100 µM in assay [7]; over 100 µM in assay [8]; 34.3 µM in assay [9]; 53.6 µM in [10].

As for `O=[N+]([O-])c1cc2ccc1OCc1cccc(n1)COc1ccc(cc1[N+](=O)[O-])C=NCCCCCCCCN=C2`, the TGI in assay [1], in [2], in [3], in assay [4], in assay [11] and in assay [5] was over 100 µM in each case. The TGI in assay [6], in assay [12], in [8], in [9] and in assay [10] was over 100 µM each time.

As to `O=C(/C=C/c1ccccc1Br)c1ccccc1`, the TGI was found to be 11.1 µM in assay [1]; 11.3 µM in assay [2]; 28.6 µM in [4]; 23.6 µM in assay [11]; 6.36 µM in [5]; 3.85 µM in assay [12]. Moreover, the TGI is 3.07 µM in assay [7], 6.57 µM in [8], 26.2 µM in assay [9] and 23.4 µM in [10].

Regarding `O=C1OC(C2Cc3ccc4c(c3C2=O)CCCC4)c2ccccc21` (configuration not stated), the TGI is 53.6 µM in [1]; 82 µM in assay [2]; over 100 µM in assay [4]; 69.9 µM in [11]; over 100 µM in assay [5]; 47.5 µM in assay [6]. The TGI in assay [12], in assay [7], in assay [8], in [9] and in assay [10] was over 100 µM in each case.

Regarding `CCNC1=C(NC(=O)c2ccc(OC)cc2)C(=O)c2ccccc2C1=O`, the TGI in assay [2], in [3], in assay [4], in assay [11], in [5] and in assay [6] was over 100 µM each time. Also, the TGI in assay [12] is over 100 µM; in [7] it was over 100 µM; in assay [8], 31.1 µM; in assay [9], over 100 µM; in assay [10], over 100 µM.

As to `O=c1[nH]c2cc3[nH]c(=O)c(=O)[nH]c3cc2[nH]c1=O`, the TGI in [1], in [2], in assay [4], in assay [11], in assay [5] and in [6] was over 100 µM each time. Further, the TGI in [12], in assay [7], in assay [8] and in assay [10] was over 100 µM each time.

With `CN1C(=O)C(C#N)C2C[C@@]1(C)Oc1ccccc12` (some centres not stated), the TGI in [1], in assay [2], in assay [4], in assay [11], in assay [5] and in assay [6] was over 100 µM in each case. Moreover, the TGI in assay [12], in assay [7], in assay [8], in [9] and in assay [10] was over 100 µM throughout.
